Experimental data from the supplement of paper PMC10307832.

Experiments:
Assay in all cases: relative viability (nuclei count vs DMSO), 5 days (fraction); higher = more cells survive
HCC-366 = tested on: HCC-366
How it was run: (§1)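 Each reported value is a median over duplicate plates. It expresses relative viability: treated-well nuclei count divided by vehicle-well nuclei count. Lung cancer cell lines in 1536-well plates were dosed by pin tool a day after seeding, alone with one drug or with a fixed anchor-drug dose plus five library-drug doses (not always all listed) in √10 steps, and nuclei were counted after 5 days.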

NCI-H3122 = tested on: NCI-H3122
How it was run: as §1

NCI-H2085 = tested on: NCI-H2085
How it was run: as §1

NCI-H1703 = tested on: NCI-H1703
How it was run: as §1

NCI-H1299 = tested on: NCI-H1299
How it was run: as §1

Calu-6 = tested on: Calu-6
How it was run: as §1

LOU-NH91 = tested on: LOU-NH91
How it was run: as §1

NCI-H1437 = tested on: NCI-H1437
How it was run: as §1

EBC-1 = tested on: EBC-1
How it was run: as §1

IA-LM = tested on: IA-LM
How it was run: as §1

HCC-44 = tested on: HCC-44
How it was run: as §1

LXF-289 = tested on: LXF-289
How it was run: as §1

Cc1sc2c(c1C)C(c1ccc(Cl)cc1)=N[C@@H](CC(=O)OC(C)(C)C)c1nnc(C)n1-2 [JQ1] + CC(C)C[C@H](NC(=O)[C@H](Cc1ccccc1)NC(=O)c1cnccn1)B(O)O [Bortezomib] (partner 0.002 µM)
relative viability (HCC-366; first compound 0.04 µM): 1.08
relative viability (HCC-366; first compound 0.4 µM): 1.03
relative viability (HCC-366; first compound 1.265 µM): 0.585
relative viability (HCC-366; first compound 4 µM): 0.23
relative viability (NCI-H3122; first compound 0.04 µM): 1.01
relative viability (NCI-H3122; first compound 0.1265 µM): 0.998
relative viability (NCI-H3122; first compound 0.4 µM): 1.03
relative viability (NCI-H3122; first compound 1.265 µM): 0.996
relative viability (NCI-H3122; first compound 4 µM): 0.905
relative viability (NCI-H2085; first compound 0.04 µM): 0.999
relative viability (NCI-H2085; first compound 0.1265 µM): 0.861
relative viability (NCI-H2085; first compound 0.4 µM): 0.893
relative viability (NCI-H2085; first compound 1.265 µM): 0.61
relative viability (NCI-H2085; first compound 4 µM): 0.564
relative viability (NCI-H1703; first compound 0.04 µM): 0.248
relative viability (NCI-H1703; first compound 0.1265 µM): 0.206
relative viability (NCI-H1703; first compound 0.4 µM): 0.19
relative viability (NCI-H1703; first compound 1.265 µM): 0.122
relative viability (NCI-H1703; first compound 4 µM): 0.102
relative viability (NCI-H1299; first compound 0.04 µM): 1.03
relative viability (NCI-H1299; first compound 0.1265 µM): 0.924
relative viability (NCI-H1299; first compound 0.4 µM): 0.963
relative viability (NCI-H1299; first compound 1.265 µM): 0.499
relative viability (NCI-H1299; first compound 4 µM): 0.363
relative viability (Calu-6; first compound 0.04 µM): 1.04
relative viability (Calu-6; first compound 0.1265 µM): 0.931
relative viability (Calu-6; first compound 0.4 µM): 0.815
relative viability (Calu-6; first compound 1.265 µM): 0.663
relative viability (Calu-6; first compound 4 µM): 0.391
relative viability (LOU-NH91; first compound 0.04 µM): 0.525
relative viability (LOU-NH91; first compound 0.1265 µM): 0.476
relative viability (LOU-NH91; first compound 0.4 µM): 0.428
relative viability (LOU-NH91; first compound 1.265 µM): 0.3
relative viability (LOU-NH91; first compound 4 µM): 0.327
relative viability (NCI-H1437; first compound 0.04 µM): 0.42
relative viability (NCI-H1437; first compound 0.1265 µM): 0.369
relative viability (NCI-H1437; first compound 0.4 µM): 0.276
relative viability (NCI-H1437; first compound 1.265 µM): 0.228
relative viability (NCI-H1437; first compound 4 µM): 0.194
relative viability (EBC-1; first compound 0.04 µM): 0.451
relative viability (EBC-1; first compound 0.1265 µM): 0.245
relative viability (EBC-1; first compound 0.4 µM): 0.219
relative viability (EBC-1; first compound 1.265 µM): 0.168
relative viability (EBC-1; first compound 4 µM): 0.19
relative viability (IA-LM; first compound 0.04 µM): 0.643
relative viability (IA-LM; first compound 0.1265 µM): 0.428
relative viability (IA-LM; first compound 0.4 µM): 0.0917
relative viability (IA-LM; first compound 1.265 µM): 0.0837
relative viability (IA-LM; first compound 4 µM): 0.0676
relative viability (HCC-44; first compound 0.04 µM): 0.941
relative viability (HCC-44; first compound 0.1265 µM): 0.702
relative viability (HCC-44; first compound 0.4 µM): 0.744
relative viability (HCC-44; first compound 1.265 µM): 0.461
relative viability (HCC-44; first compound 4 µM): 0.224
relative viability (LXF-289; first compound 0.04 µM): 0.977
relative viability (LXF-289; first compound 0.1265 µM): 0.887
relative viability (LXF-289; first compound 0.4 µM): 0.865
relative viability (LXF-289; first compound 1.265 µM): 0.894
relative viability (LXF-289; first compound 4 µM): 0.719

COc1cc2nccc(Oc3ccc(NC(=O)Nc4cc(C)on4)c(Cl)c3)c2cc1OC [Tivozanib] + CC(C)C[C@H](NC(=O)[C@H](Cc1ccccc1)NC(=O)c1cnccn1)B(O)O [Bortezomib] (partner 0.002 µM)
relative viability (HCC-366; first compound 0.005 µM): 1.01
relative viability (HCC-366; first compound 0.01581 µM): 1.05
relative viability (HCC-366; first compound 0.05 µM): 1.06
relative viability (HCC-366; first compound 0.1581 µM): 1.05
relative viability (HCC-366; first compound 0.5 µM): 1.05
relative viability (NCI-H3122; first compound 0.005 µM): 0.99
relative viability (NCI-H3122; first compound 0.01581 µM): 1.02
relative viability (NCI-H3122; first compound 0.05 µM): 1.08
relative viability (NCI-H3122; first compound 0.1581 µM): 1.12
relative viability (NCI-H3122; first compound 0.5 µM): 1.04
relative viability (NCI-H2085; first compound 0.005 µM): 1.02
relative viability (NCI-H2085; first compound 0.01581 µM): 1.1
relative viability (NCI-H2085; first compound 0.05 µM): 1.07
relative viability (NCI-H2085; first compound 0.1581 µM): 1.04
relative viability (NCI-H2085; first compound 0.5 µM): 0.846
relative viability (NCI-H1703; first compound 0.005 µM): 0.247
relative viability (NCI-H1703; first compound 0.01581 µM): 0.186
relative viability (NCI-H1703; first compound 0.05 µM): 0.154
relative viability (NCI-H1703; first compound 0.1581 µM): 0.167
relative viability (NCI-H1703; first compound 0.5 µM): 0.164
relative viability (NCI-H1299; first compound 0.005 µM): 1.05
relative viability (NCI-H1299; first compound 0.01581 µM): 1.02
relative viability (NCI-H1299; first compound 0.05 µM): 1.01
relative viability (NCI-H1299; first compound 0.1581 µM): 1.06
relative viability (NCI-H1299; first compound 0.5 µM): 0.958
relative viability (Calu-6; first compound 0.005 µM): 0.904
relative viability (Calu-6; first compound 0.01581 µM): 1.08
relative viability (Calu-6; first compound 0.05 µM): 0.986
relative viability (Calu-6; first compound 0.1581 µM): 0.965
relative viability (Calu-6; first compound 0.5 µM): 0.95
relative viability (LOU-NH91; first compound 0.005 µM): 0.5
relative viability (LOU-NH91; first compound 0.01581 µM): 0.489
relative viability (LOU-NH91; first compound 0.05 µM): 0.722
relative viability (LOU-NH91; first compound 0.1581 µM): 0.561
relative viability (LOU-NH91; first compound 0.5 µM): 0.499
relative viability (NCI-H1437; first compound 0.005 µM): 0.487
relative viability (NCI-H1437; first compound 0.01581 µM): 0.558
relative viability (NCI-H1437; first compound 0.05 µM): 0.523
relative viability (NCI-H1437; first compound 0.1581 µM): 0.508
relative viability (NCI-H1437; first compound 0.5 µM): 0.399
relative viability (EBC-1; first compound 0.005 µM): 0.5
relative viability (EBC-1; first compound 0.01581 µM): 0.561
relative viability (EBC-1; first compound 0.05 µM): 0.624
relative viability (EBC-1; first compound 0.1581 µM): 0.511
relative viability (EBC-1; first compound 0.5 µM): 0.477
relative viability (IA-LM; first compound 0.005 µM): 0.716
relative viability (IA-LM; first compound 0.01581 µM): 0.812
relative viability (IA-LM; first compound 0.05 µM): 0.821
relative viability (IA-LM; first compound 0.1581 µM): 0.623
relative viability (IA-LM; first compound 0.5 µM): 0.614
relative viability (HCC-44; first compound 0.005 µM): 0.895
relative viability (HCC-44; first compound 0.01581 µM): 0.809
relative viability (HCC-44; first compound 0.05 µM): 0.92
relative viability (HCC-44; first compound 0.1581 µM): 0.864
relative viability (HCC-44; first compound 0.5 µM): 0.833
relative viability (LXF-289; first compound 0.005 µM): 0.952
relative viability (LXF-289; first compound 0.01581 µM): 0.956
relative viability (LXF-289; first compound 0.05 µM): 0.959
relative viability (LXF-289; first compound 0.1581 µM): 1.03
relative viability (LXF-289; first compound 0.5 µM): 0.964
